Experiment: Regional bioavailability of rifaximin, open-label 5-way crossover study in healthy male subjects
Format: in vivo, human
Details: based on comparisons of AUC0-24 with AUCact-24, geometric mean
Text: Blood samples were collected pre-dose and at specified time points after dosing for PK analysis.

Frel (Regimen B: 150 mg rifaximin SSD delivered to the proximal small bowel): 36.4%
Frel (Regimen C: 150 mg rifaximin SSD delivered to the distal small bowel): 2.09%
Frel (Regimen D: 150 mg rifaximin SSD delivered to the colon): 0.216%
Frel (Regimen E: 150 mg rifaximin SSD delivered to the mid small bowel): 7.08%
SMILES: CO[C@H]1/C=C/O[C@@]2(C)Oc3c(C)c(O)c4c(O)c(c5c(nc6cc(C)ccn65)c4c3C2=O)NC(=O)/C(C)=C\C=C\[C@H](C)[C@H](O)[C@@H](C)[C@@H](O)[C@@H](C)[C@H](OC(C)=O)[C@@H]1C [Rifaximin, 4-Deoxy-4′-methylpyrido[1′,2′-1,2]imidazo[5,4-c]rifamycin SV]

— US12611378B2 (Bausch Health Ireland Limited, priority 2020, dated 2026)
